molecular target: Mcl-1 protein (UniProtKB primary accession number: Q07820) (Homo sapiens, UniProt Q07820); assay: Inhibition of Mcl-1 by fluorescence polarisation, Method 1; format: binding; details: fluorescence polarisation test; Method 1, or Method 2 where the value is underlined (underlining not visible); read-out: IC50 (M) Mcl-1 FP
How it was run: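 Buffer of 10 mM HEPES pH 7.4 with 150 mM NaCl and 0.05% Tween 20 held 5 nM Mcl-1 and 1 nM fluorescein-tagged ligand (final). Compounds were tested as 11-point serial dilutions at 5% final DMSO, and binding was read by FP.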

Chain of Mcl-1 protein (Q07820 whole entry): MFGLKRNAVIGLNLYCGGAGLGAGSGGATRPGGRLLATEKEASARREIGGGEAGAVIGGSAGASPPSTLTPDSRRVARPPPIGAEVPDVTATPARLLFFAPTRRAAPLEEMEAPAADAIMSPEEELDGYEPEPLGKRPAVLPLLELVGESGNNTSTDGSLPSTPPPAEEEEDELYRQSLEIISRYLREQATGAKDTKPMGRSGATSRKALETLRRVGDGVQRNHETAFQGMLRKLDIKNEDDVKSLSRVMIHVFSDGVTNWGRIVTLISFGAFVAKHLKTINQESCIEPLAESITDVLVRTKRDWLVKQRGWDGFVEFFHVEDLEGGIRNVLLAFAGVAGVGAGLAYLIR

Row | SMILES | IC50 [M]
1 | Cc1oc(=O)oc1COC(=O)C(Cc1ccccc1OCc1ccnn1C(C)(C)C)Oc1ncnc2sc(-c3ccc(F)cc3)c(-c3ccc(OCCN(C)C)c(Cl)c3C)c12 [Example 820, (5-methyl-2-oxo-1,3-dioxol-4-yl)methyl (2R)-3-{2-[(1-tert-butyl-1H-pyrazol-5-yl)methoxy]phenyl}-2-{[(5Sa)-5-{3-chloro-4-[2-(dimethylamino)ethoxy]-2-methylphenyl}-6-(4-fluorophenyl)thieno[2,3-d]pyrimidin-4-yl]oxy}propanoate] | 1.29e-08
2 | Cc1c(-c2c(-c3ccc(F)cc3)sc3ncnc(OC(Cc4ccccc4OCc4ccnn4C(C)(C)C)C(=O)OCOC(=O)C(C)(C)C)c23)ccc(OCCN(C)C)c1Cl [Example 821, {[(2R)-3-{2-[(1-tert-butyl-1H-pyrazol-5-yl)methoxy]phenyl}-2-{[(5Sa)-5-{3-chloro-4-[2-(dimethylamino)ethoxy]-2-methylphenyl}-6-(4-fluorophenyl)thieno[2,3-d]pyrimidin-4-yl]oxy}propanoyl]oxy}methyl 2,2-dimethylpropanoate] | 3.61e-07
3 | CCN(C)CCOc1ccc(-c2c(-c3ccc(F)cc3)sc3ncnc(OC(Cc4ccccc4OCc4ccnc(-c5ccccc5F)n4)C(=O)OCC(=O)N(C)C)c23)c(C)c1Cl [Example 822, 2-(dimethylamino)-2-oxoethyl (2R)-2-{[(5Sa)-5-(3-chloro-4-{2-[ethyl(methyl)amino]ethoxy}-2-methylphenyl)-6-(4-fluorophenyl)thieno[2,3-d]pyrimidin-4-yl]oxy}-3-(2-{[2-(2-fluorophenyl)pyrimidin-4-yl]methoxy}phenyl)propanoate] | 2.4e-06
4 | CCN(C)CCOc1ccc(-c2c(-c3ccc(F)cc3)sc3ncnc(OC(Cc4ccccc4OCc4ccnc(-c5ccccc5F)n4)C(=O)OCc4oc(=O)oc4C)c23)c(C)c1Cl [Example 823, (5-methyl-2-oxo-1,3-dioxol-4-yl)methyl (2R)-2-{[(5Sa)-5-(3-chloro-4-{2-[ethyl(methyl)amino]ethoxy}-2-methylphenyl)-6-(4-fluorophenyl)thieno[2,3-d]pyrimidin-4-yl]oxy}-3-(2-{[2-(2-fluorophenyl)pyrimidin-4-yl]methoxy}phenyl)propanoate] | 1.98e-08
5 | Cc1oc(=O)oc1COC(=O)C(Cc1ccccc1OCc1ccnn1C(C)(C)C)Oc1ncnc2sc(-c3cccc(F)c3F)c(-c3ccc(OCCN(C)C)c(Cl)c3C)c12 [Example 824, (5-methyl-2-oxo-1,3-dioxol-4-yl)methyl (2R)-3-{2-[(1-tert-butyl-1H-pyrazol-5-yl)methoxy]phenyl}-2-{[(5Sa)-5-{3-chloro-4-[2-(dimethylamino)ethoxy]-2-methylphenyl}-6-(2,3-difluorophenyl)thieno[2,3-d]pyrimidin-4-yl]oxy}propanoate] | 3.82e-08
6 | Cc1c(-c2c(-c3cccc(F)c3F)sc3ncnc(OC(Cc4ccccc4OCc4ccnn4C(C)(C)C)C(=O)OCC(=O)N(C)C)c23)ccc(OCCN(C)C)c1Cl [Example 825, 2-(dimethylamino)-2-oxoethyl (2R)-3-{2-[(1-tert-butyl-1H-pyrazol-5-yl)methoxy]phenyl}-2-{[(5Sa)-5-{3-chloro-4-[2-(dimethylamino)ethoxy]-2-methylphenyl}-6-(2,3-difluorophenyl)thieno[2,3-d]pyrimidin-4-yl]oxy}propanoate] | 5.82e-07
7 | COc1ccccc1-c1nccc(COc2ccccc2CC(Oc2ncnc3sc(-c4ccc(F)cc4)c(-c4ccc(OCCN5CC6(CN(C)C6)C5)c(Cl)c4C)c23)C(=O)O)n1 [Example 833, (2R)-2-{[(5Sa)-5-{3-chloro-2-methyl-4-[2-(6-methyl-2,6-diazaspiro[3.3]hept-2-yl)ethoxy]phenyl}-6-(4-fluorophenyl)thieno[2,3-d]pyrimidin-4-yl]oxy}-3-(2-{[2-(2-methoxyphenyl)pyrimidin-4-yl]methoxy}phenyl)propanoic acid] | 3.35e-09
8 | [2H]C([2H])([2H])Oc1ccccc1-c1nccc(COc2ccccc2CC(Oc2ncnc3sc(-c4ccc(F)cc4)c(-c4ccc(OCCN5CCN(C)CC5)c(Cl)c4C)c23)C(=O)OCC)n1 [Example 839, ethyl (2R)-2-{[(5Sa)-5-{3-chloro-2-methyl-4-[2-(4-methylpiperazin-1-yl)ethoxy]phenyl}-6-(4-fluorophenyl)thieno[2,3-d]pyrimidin-4-yl]oxy}-3-{2-[(2-{2-[(^2H3)methyloxy]phenyl}pyrimidin-4-yl)methoxy]phenyl}propanoate] | 6.91e-07
9 | COc1ccccc1CC(Oc1ncnc2sc(-c3ccc(F)cc3)c(-c3ccc(OC)c(Cl)c3C)c12)C(=O)O [Example 840, (2R)-2-{[(5Sa)-5-(3-chloro-4-methoxy-2-methylphenyl)-6-(4-fluorophenyl)thieno[2,3-d]pyrimidin-4-yl]oxy}-3-(2-methoxyphenyl)propanoic acid] | 1.28e-07

Second part, the molecule after the results:

Row | IC50 [M] | SMILES
10 | 4.8e-09 | COc1ccccc1-c1nccc(COc2ccccc2CC(Oc2ncnc3sc(-c4ccc(F)cc4)c(-c4ccc(OC)c(Cl)c4C)c23)C(=O)O)n1 [Example 841, (2R)-2-{[(5Sa)-5-(3-chloro-4-methoxy-2-methylphenyl)-6-(4-fluorophenyl)thieno[2,3-d]pyrimidin-4-yl]oxy}-3-(2-{[2-(2-methoxyphenyl)pyrimidin-4-yl]methoxy}phenyl)propanoic acid]
11 | 1.67e-06 | COc1ccccc1CC(Oc1ncnc2sc(-c3ccc(F)cc3)c(-c3ccc(OCCN4CCN(C)CC4)c(Cl)c3C)c12)C(=O)OCC(=O)N(C)C [Example 844, 2-(dimethylamino)-2-oxoethyl (2R)-2-{[(5Sa)-5-{3-chloro-2-methyl-4-[2-(4-methylpiperazin-1-yl)ethoxy]phenyl}-6-(4-fluorophenyl)thieno[2,3-d]pyrimidin-4-yl]oxy}-3-(2-methoxyphenyl)propanoate]

same assay, conditions: test compound at 10 uM; Method 1, or Method 2 where the value is underlined (underlining not visible)

Row | percentage fluorescence polarisation inhibition (Mcl-1 FP), partial inhibitors [% @ 10 uM] | SMILES
12 | −11.9 | CCOC(=O)[C@@H](Cc1ccccc1OCc1ccnc(-c2ccccc2OC)n1)Oc1ncnc2sc(-c3ccc(F)cc3)c(-c3ccc(OCCN4CCN(C)CC4)c(Cl)c3C)c12 [Example 830, ethyl (2R)-2-{[(5Ra)-5-{3-chloro-2-methyl-4-[2-(4-methylpiperazin-1-yl)ethoxy]phenyl}-6-(4-fluorophenyl)thieno[2,3-d]pyrimidin-4-yl]oxy}-3-(2-{[2-(2-methoxyphenyl)pyrimidin-4-yl]methoxy}phenyl)propanoate]
13 | 7.65 | CCOC(=O)[C@@H](Cc1ccccc1OC)Oc1ncnc2sc(-c3ccc(F)cc3)c(-c3ccc(OC)c(Cl)c3C)c12 [Example 842, ethyl (2R)-2-{[(5Sa)-5-(3-chloro-4-methoxy-2-methylphenyl)-6-(4-fluorophenyl)thieno[2,3-d]pyrimidin-4-yl]oxy}-3-(2-methoxyphenyl)propanoate]
14 | 23.05 | CCOC(=O)[C@@H](Cc1ccccc1OCc1ccnc(-c2ccccc2OC)n1)Oc1ncnc2sc(-c3ccc(F)cc3)c(-c3ccc(OC)c(Cl)c3C)c12 [Example 843, ethyl (2R)-2-{[(5Sa)-5-(3-chloro-4-methoxy-2-methylphenyl)-6-(4-fluorophenyl)thieno[2,3-d]pyrimidin-4-yl]oxy}-3-(2-{[2-(2-methoxyphenyl)pyrimidin-4-yl]methoxy}phenyl)propanoate]
15 | 7.85 | COc1ccccc1C[C@@H](Oc1ncnc2sc(-c3ccc(F)cc3)c(-c3ccc(OC)c(Cl)c3C)c12)C(=O)OCC(=O)N(C)C [Example 845, 2-(dimethylamino)-2-oxoethyl (2R)-2-{[(5Sa)-5-(3-chloro-4-methoxy-2-methylphenyl)-6-(4-fluorophenyl)thieno[2,3-d]pyrimidin-4-yl]oxy}-3-(2-methoxyphenyl)propanoate]
16 | 25.1 | COc1ccccc1C[C@@H](Oc1ncnc2sc(-c3ccc(F)cc3)c(-c3ccc(OC)c(Cl)c3C)c12)C(=O)OCOC(=O)C(C)(C)C [Example 846, {[(2R)-2-{[(5Sa)-5-(3-chloro-4-methoxy-2-methylphenyl)-6-(4-fluorophenyl)thieno[2,3-d]pyrimidin-4-yl]oxy}-3-(2-methoxyphenyl)propanoyl]oxy}methyl 2,2-dimethylpropanoate]
17 | 3.55 | CCCCCCCCOC(=O)[C@@H](Cc1ccccc1OCc1ccnc(-c2ccccc2OC)n1)Oc1ncnc2sc(-c3ccc(F)cc3)c(-c3ccc(OC)c(Cl)c3C)c12 [Example 847, octyl (2R)-2-{[(5Sa)-5-(3-chloro-4-methoxy-2-methylphenyl)-6-(4-fluorophenyl)thieno[2,3-d]pyrimidin-4-yl]oxy}-3-(2-{[2-(2-methoxyphenyl)pyrimidin-4-yl]methoxy}phenyl)propanoate]
18 | 46.7 | COc1ccccc1-c1nccc(COc2ccccc2C[C@@H](Oc2ncnc3sc(-c4ccc(F)cc4)c(-c4ccc(OC)c(Cl)c4C)c23)C(=O)OCC(=O)N(C)C)n1 [Example 848, 2-(dimethylamino)-2-oxoethyl (2R)-2-{[(5Sa)-5-(3-chloro-4-methoxy-2-methylphenyl)-6-(4-fluorophenyl)thieno[2,3-d]pyrimidin-4-yl]oxy}-3-(2-{[2-(2-methoxyphenyl)pyrimidin-4-yl]methoxy}phenyl)propanoate]
19 | 61.35 | COc1ccccc1-c1nccc(COc2ccccc2C[C@@H](Oc2ncnc3sc(-c4ccc(F)cc4)c(-c4ccc(OC)c(Cl)c4C)c23)C(=O)OCOC(=O)C(C)(C)C)n1 [Example 849, {[(2R)-2-{[(5Sa)-5-(3-chloro-4-methoxy-2-methylphenyl)-6-(4-fluorophenyl)thieno[2,3-d]pyrimidin-4-yl]oxy}-3-(2-{[2-(2-methoxyphenyl)pyrimidin-4-yl]methoxy}phenyl)propanoyl]oxy}methyl 2,2-dimethylpropanoate]

— patent publication US9670227B2, “Thienopyrimidine derivatives, a process for their preparation and pharmaceutical compositions containing them” (LES LABORATOIRES SERVIER, priority 2013, dated 2017)
